Paper PMC3463507 (ChemMedChem, 2012)

The compounds below were run against T1, BaDHPS (Bacillus anthracis, UniProt Q81VW8) (assay: biochemical). Conditions: 25 °C.
Type: binding

T1 sequence (Q81VW8 1-280): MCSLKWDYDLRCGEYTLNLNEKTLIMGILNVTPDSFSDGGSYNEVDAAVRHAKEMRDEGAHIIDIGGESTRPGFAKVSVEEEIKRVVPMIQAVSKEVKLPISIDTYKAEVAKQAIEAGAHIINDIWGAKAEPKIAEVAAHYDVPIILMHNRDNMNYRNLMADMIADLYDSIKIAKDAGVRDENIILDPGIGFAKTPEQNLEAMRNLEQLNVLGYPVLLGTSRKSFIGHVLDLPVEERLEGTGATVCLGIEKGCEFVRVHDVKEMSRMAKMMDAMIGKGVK

| Compound | SPR kd |
| --- | --- |
| Cn1nc(CC(=O)O)c(=O)c2c(=O)[nH]c(N)nc21 [Compound 16, 2-(7-Amino-1-methyl-4,5-dioxo-1,4,5,6-tetrahydropyrimido[4,5-c]pyridazin-3-yl)acetic acid] | 6.94(6) × 10^−2 s^−1 |
| CC(CC(=O)O)c1n[nH]c2nc(N)[nH]c(=O)c2c1=O (stereo not shown) [Compound 24, 3-(7-Amino-4,5-dioxo-1,4,5,6-tetrahydropyrimido[4,5-c]pyridazin-3-yl)butanoic acid] | 3.39(1) × 10^−1 s^−1 |
| CC(C(=O)O)c1n[nH]c2nc(N)[nH]c(=O)c2c1=O (stereo not shown) [Compound 19, 2-(7-Amino-4,5-dioxo-1,4,5,6-tetrahydropyrimido[4,5-c]pyridazin-3-yl)propanoic acid] | 4.39(3) × 10^−2 s^−1 |
| Nc1nc2[nH]nc(CCC(=O)O)c(=O)c2c(=O)[nH]1 [Compound 25, 3-(7-Amino-4,5-dioxo-1,4,5,6-tetrahydropyrimido[4,5-c]pyridazin-3-yl)propanoic acid] | 3.14(1) × 10^−1 s^−1 |
| Nc1nc2[nH]nc(CC(=O)O)c(=O)c2c(=O)[nH]1 [Compound 23, 2-(7-Amino-4,5-dioxo-1,4,5,6-tetrahydropyrimido[4,5-c]pyridazin-3-yl)acetic acid] | 4.35(3) × 10^−2 s^−1 |

Same assay, conditions: SPR KD

| Compound | Kd [nM] |
| --- | --- |
| Cn1nc(CC(=O)O)c(=O)c2c(=O)[nH]c(N)nc21 [Compound 16, 2-(7-Amino-1-methyl-4,5-dioxo-1,4,5,6-tetrahydropyrimido[4,5-c]pyridazin-3-yl)acetic acid] | 203 |
| CC(C(=O)O)c1n[nH]c2nc(N)[nH]c(=O)c2c1=O (stereo not shown) [Compound 19, 2-(7-Amino-4,5-dioxo-1,4,5,6-tetrahydropyrimido[4,5-c]pyridazin-3-yl)propanoic acid] | 120 |
| Nc1nc2[nH]nc(CC(=O)O)c(=O)c2c(=O)[nH]1 [Compound 23, 2-(7-Amino-4,5-dioxo-1,4,5,6-tetrahydropyrimido[4,5-c]pyridazin-3-yl)acetic acid] | 104 |

Same assay, conditions: SPR KD(eq)

| Compound | Kd [nM] |
| --- | --- |
| Cn1nc(CC(=O)O)c(=O)c2c(=O)[nH]c(N)nc21 [Compound 16, 2-(7-Amino-1-methyl-4,5-dioxo-1,4,5,6-tetrahydropyrimido[4,5-c]pyridazin-3-yl)acetic acid] | 190 |
| CC(C(=O)O)c1n[nH]c2nc(N)[nH]c(=O)c2c1=O (stereo not shown) [Compound 19, 2-(7-Amino-4,5-dioxo-1,4,5,6-tetrahydropyrimido[4,5-c]pyridazin-3-yl)propanoic acid] | 123 |
| Nc1nc2[nH]nc(CC(=O)O)c(=O)c2c(=O)[nH]1 [Compound 23, 2-(7-Amino-4,5-dioxo-1,4,5,6-tetrahydropyrimido[4,5-c]pyridazin-3-yl)acetic acid] | 110 |

Same assay, conditions: read-out: SPR KD

| Compound | Kd [nM] |
| --- | --- |
| Nc1nc2[nH]nc(CCC(=O)O)c(=O)c2c(=O)[nH]1 [Compound 25, 3-(7-Amino-4,5-dioxo-1,4,5,6-tetrahydropyrimido[4,5-c]pyridazin-3-yl)propanoic acid] | 710 |

Same assay, conditions: read-out: SPR KD(eq)

| Compound | Kd [nM] |
| --- | --- |
| Nc1nc2[nH]nc(CCC(=O)O)c(=O)c2c(=O)[nH]1 [Compound 25, 3-(7-Amino-4,5-dioxo-1,4,5,6-tetrahydropyrimido[4,5-c]pyridazin-3-yl)propanoic acid] | 713 |

Same assay, conditions: read-out: SPR ka

| Compound | kon [M⁻¹ s⁻¹] |
| --- | --- |
| Cn1nc(CC(=O)O)c(=O)c2c(=O)[nH]c(N)nc21 [Compound 16, 2-(7-Amino-1-methyl-4,5-dioxo-1,4,5,6-tetrahydropyrimido[4,5-c]pyridazin-3-yl)acetic acid] | 342000 |
| CC(CC(=O)O)c1n[nH]c2nc(N)[nH]c(=O)c2c1=O (stereo not shown) [Compound 24, 3-(7-Amino-4,5-dioxo-1,4,5,6-tetrahydropyrimido[4,5-c]pyridazin-3-yl)butanoic acid] | 643000 |
| CC(C(=O)O)c1n[nH]c2nc(N)[nH]c(=O)c2c1=O (stereo not shown) [Compound 19, 2-(7-Amino-4,5-dioxo-1,4,5,6-tetrahydropyrimido[4,5-c]pyridazin-3-yl)propanoic acid] | 366000 |
| Nc1nc2[nH]nc(CCC(=O)O)c(=O)c2c(=O)[nH]1 [Compound 25, 3-(7-Amino-4,5-dioxo-1,4,5,6-tetrahydropyrimido[4,5-c]pyridazin-3-yl)propanoic acid] | 442000 |
| Nc1nc2[nH]nc(CC(=O)O)c(=O)c2c(=O)[nH]1 [Compound 23, 2-(7-Amino-4,5-dioxo-1,4,5,6-tetrahydropyrimido[4,5-c]pyridazin-3-yl)acetic acid] | 419000 |

The compounds below were run against T1, BaDHPS (assay: biochemical). Conditions: not given.
Type: biochemical

| Compound | IC50 |
| --- | --- |
| Cn1nc(C(=O)O)c(=O)c2c(=O)[nH]c(N)nc21 [Compound 5, 7-Amino-1-methyl-4,5-dioxo-1,4,5,6-tetrahydropyrimido[4,5-c]pyridazine-3-carboxylic acid] | no detectable IC50 value |
| Cn1nc(CC(=O)O)c(=O)c2c(=O)[nH]c(N)nc21 [Compound 16, 2-(7-Amino-1-methyl-4,5-dioxo-1,4,5,6-tetrahydropyrimido[4,5-c]pyridazin-3-yl)acetic acid] | 32000 nM |
| CC(CC(=O)O)c1n[nH]c2nc(N)[nH]c(=O)c2c1=O (stereo not shown) [Compound 24, 3-(7-Amino-4,5-dioxo-1,4,5,6-tetrahydropyrimido[4,5-c]pyridazin-3-yl)butanoic acid] | 57000 nM |
| Nc1nc2[nH]nc(CCC(=O)O)c(=O)c2c(=O)[nH]1 [Compound 25, 3-(7-Amino-4,5-dioxo-1,4,5,6-tetrahydropyrimido[4,5-c]pyridazin-3-yl)propanoic acid] | 36000 nM |
| Nc1nc2[nH]nc(CC(=O)O)c(=O)c2c(=O)[nH]1 [Compound 23, 2-(7-Amino-4,5-dioxo-1,4,5,6-tetrahydropyrimido[4,5-c]pyridazin-3-yl)acetic acid] | 18000 nM |
| COC(=O)CCc1n[nH]c2nc(N)[nH]c(=O)c2c1=O [Compound 22, Methyl 3-(7-amino-4,5-dioxo-1,4,5,6-tetrahydropyrimido[4,5-c]pyridazin-3-yl)propanoate] | 260000 nM |
| CC(CC(=O)O)c1nn(C)c2nc(N)[nH]c(=O)c2c1=O (stereo not shown) [Compound 17, 3-(7-Amino-1-methyl-4,5-dioxo-1,4,5,6-tetrahydropyrimido[4,5-c]pyridazin-3-yl)butanoic acid] | 145000 nM |

Same assay, conditions: read-out: Enzyme Inhibition Activity% @250μM

| Compound | inhibition at 250 µM [%] |
| --- | --- |
| Cn1nc(C(=O)O)c(=O)c2c(=O)[nH]c(N)nc21 [Compound 5, 7-Amino-1-methyl-4,5-dioxo-1,4,5,6-tetrahydropyrimido[4,5-c]pyridazine-3-carboxylic acid] | 32.4 |
| Cn1nc(CC(=O)O)c(=O)c2c(=O)[nH]c(N)nc21 [Compound 16, 2-(7-Amino-1-methyl-4,5-dioxo-1,4,5,6-tetrahydropyrimido[4,5-c]pyridazin-3-yl)acetic acid] | 96 |
| CC(CC(=O)O)c1n[nH]c2nc(N)[nH]c(=O)c2c1=O (stereo not shown) [Compound 24, 3-(7-Amino-4,5-dioxo-1,4,5,6-tetrahydropyrimido[4,5-c]pyridazin-3-yl)butanoic acid] | 75.8 |
| CC(C(=O)O)c1n[nH]c2nc(N)[nH]c(=O)c2c1=O (stereo not shown) [Compound 19, 2-(7-Amino-4,5-dioxo-1,4,5,6-tetrahydropyrimido[4,5-c]pyridazin-3-yl)propanoic acid] | 95.3 |
| Nc1nc2[nH]nc(CCC(=O)O)c(=O)c2c(=O)[nH]1 [Compound 25, 3-(7-Amino-4,5-dioxo-1,4,5,6-tetrahydropyrimido[4,5-c]pyridazin-3-yl)propanoic acid] | 91.8 |
| Nc1nc2[nH]nc(CC(=O)O)c(=O)c2c(=O)[nH]1 [Compound 23, 2-(7-Amino-4,5-dioxo-1,4,5,6-tetrahydropyrimido[4,5-c]pyridazin-3-yl)acetic acid] | 91 |
| COC(=O)CCc1n[nH]c2nc(N)[nH]c(=O)c2c1=O [Compound 22, Methyl 3-(7-amino-4,5-dioxo-1,4,5,6-tetrahydropyrimido[4,5-c]pyridazin-3-yl)propanoate] | 33 |
| Cn1nc(CCC(=O)O)c(=O)c2c(=O)[nH]c(N)nc21 [Compound 18, 3-(7-Amino-1-methyl-4,5-dioxo-1,4,5,6-tetrahydropyrimido[4,5-c]pyridazin-3-yl)propanoic acid] | 65 |
| CC(CC(=O)O)c1nn(C)c2nc(N)[nH]c(=O)c2c1=O (stereo not shown) [Compound 17, 3-(7-Amino-1-methyl-4,5-dioxo-1,4,5,6-tetrahydropyrimido[4,5-c]pyridazin-3-yl)butanoic acid] | 52.5 |

The compounds below were run against T1, BaDHPS (assay: not given). Conditions: 25 °C, pH 7.6.
Type: binding

| Compound | ITC N (stoichiometry of the interaction) | ITC ΔG [kcal/mol] | ITC ΔH [kcal/mol] | ITC −TΔS [kcal/mol] |
| --- | --- | --- | --- | --- |
| CC(CC(=O)O)c1n[nH]c2nc(N)[nH]c(=O)c2c1=O (stereo not shown) [Compound 24, 3-(7-Amino-4,5-dioxo-1,4,5,6-tetrahydropyrimido[4,5-c]pyridazin-3-yl)butanoic acid] | 0.8 | -8.6 | -7.5 | -1.1 |
| CC(C(=O)O)c1n[nH]c2nc(N)[nH]c(=O)c2c1=O (stereo not shown) [Compound 19, 2-(7-Amino-4,5-dioxo-1,4,5,6-tetrahydropyrimido[4,5-c]pyridazin-3-yl)propanoic acid] | 0.9 | -9.65 | -8.7 | -0.95 |
| Nc1nc2[nH]nc(CCC(=O)O)c(=O)c2c(=O)[nH]1 [Compound 25, 3-(7-Amino-4,5-dioxo-1,4,5,6-tetrahydropyrimido[4,5-c]pyridazin-3-yl)propanoic acid] | 0.7 | -8.94 | -10.4 | 1.46 |
